# Legend:
# [1] = test system: M. smegmatis ΔrrnB 1408G (16S rRNA position 1408 G, eukaryotic cytosolic ribosomes); assay: MIC, recombinant M. smegmatis with mutant ribosomes 1408G; assay type: cell-based, Mycobacterium smegmatis; conditions: M. smegmatis ΔrrnB 1408G mutant ribosomes; 72 h at 37° C.
# Method in brief: (§1)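 M. smegmatis single-rRNA-operon strain carrying the indicated 16S rRNA decoding-site alleles, introduced into the chromosomal operon and confirmed by sequencing. Colony-purified cultures were grown in LB with 0.05% Tween 80 and started at OD600 0.025. MIC was read in microtiter format against twofold drug dilutions.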
# AG006 E. coli BM13 = assay: Standard MIC assay, AG006; assay type: cell-based, Escherichia coli
# Protocol: (§2) Selected compounds of the present invention were tested for antibiotic susceptibility using clinical isolates of Staphylococci, Enterococci and Escherichia coli as well as strains carrying defined resistance determinants and compared to well known antibiotics of the state of the art. Drug susceptibility was determined in standard MIC assays, i.e. by determination of the minimal drug concentration required to inhibit bacterial growth in vitro.
# [2] = test system: AG011 Staph. aureus clinical isolate; assay: Standard MIC assay, AG011; assay type: cell-based, Staphylococcus aureus
# Method in brief: (§3)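 Read-out: lowest compound concentration preventing bacterial growth in vitro (MIC). Strains include clinical isolates and isolates with defined resistance determinants.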
# [3] = test system: AG013 Staph. epi. clinical isolate; assay: Standard MIC assay, AG013; assay type: cell-based, Staphylococcus epidermidis
# Method in brief: as §3
# [4] = test system: M. smegmatis ΔrrnB 1491C (16S rRNA position 1491 C, eukaryotic mitochondrial ribosome); assay: MIC, recombinant M. smegmatis with mutant ribosomes 1491C; assay type: cell-based, Mycobacterium smegmatis; conditions: M. smegmatis ΔrrnB 1491C mutant ribosomes; 72 h at 37° C.
# Method in brief: as §1
# [5] = test system: AG002 E. coli clinical isolate; assay: Standard MIC assay, AG002; assay type: cell-based, Escherichia coli
# Protocol: as §2
# [6] = test system: M. smegmatis ΔrrnB 1491A (16S rRNA position 1491 A, eukaryotic cytosolic ribosomes); assay: MIC, recombinant M. smegmatis with mutant ribosomes 1491A; assay type: cell-based, Mycobacterium smegmatis; conditions: M. smegmatis ΔrrnB 1491A mutant ribosomes; 72 h at 37° C.
# Method in brief: as §1
# [7] = test system: AG007 E. coli BM13 (AAC3); assay: Standard MIC assay, AG007; assay type: cell-based, Escherichia coli; conditions: for Minimal inhibitory concentrations AG007: E. coli BM13 (AAC3)
# Protocol: as §2
# [8] = test system: AG014 Staph. epi. clinical isolate; assay: Standard MIC assay, AG014; assay type: cell-based, Staphylococcus epidermidis
# Method in brief: as §3
# [9] = test system: AG008 E. coli BM13 (ANT2″); assay: Standard MIC assay, AG008; assay type: cell-based, Escherichia coli; conditions: for Minimal inhibitory concentrations AG008: E. coli BM13 (ANT2″)
# Protocol: as §2
# AG017 E. faecalis JH2-2 = assay: Standard MIC assay, AG017; assay type: cell-based, Enterococcus faecalis
# Method in brief: as §3
# AG016 S. aureus BM3002 = assay: Standard MIC assay, AG016; assay type: cell-based, Staphylococcus aureus
# Method in brief: as §3
# [10] = test system: AG009 E. coli BM13 AAC(6′)-1B; assay: Standard MIC assay, AG009; assay type: cell-based, Escherichia coli; conditions: for Minimal inhibitory concentrations AG009: E. coli BM13 AAC(6′)-1B
# Protocol: as §2
# [11] = test system: AG015 S. aureus BM3002 (ANT4′); assay: Standard MIC assay, AG015; assay type: cell-based, Staphylococcus aureus; conditions: for Minimal inhibitory concentrations AG015: S. aureus BM3002 (ANT4′)
# Method in brief: as §3
# [12] = test system: AG001 E. coli clinical isolate; assay: Standard MIC assay, AG001; assay type: cell-based, Escherichia coli
# Protocol: as §2
# [13] = test system: AG003 E. coli clinical isolate; assay: Standard MIC assay, AG003; assay type: cell-based, Escherichia coli
# Protocol: as §2
# [14] = test system: AG004 E. coli clinical isolate; assay: Standard MIC assay, AG004; assay type: cell-based, Escherichia coli
# Protocol: as §2
# [15] = test system: AG019 E. faecalis JH2-2 (APH2″ AAC6′); assay: Standard MIC assay, AG019; assay type: cell-based, Enterococcus faecalis; conditions: for Minimal inhibitory concentrations AG019: E. faecalis JH2-2 (APH2″ AAC6′)
# Method in brief: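 Compounds were tested in standard MIC assays. The value reported is the minimal concentration that inhibited bacterial growth in vitro.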
# [16] = test system: M. smegmatis ΔrrnB (bacterial ribosomes); assay: MIC, recombinant M. smegmatis with bacterial (wild-type) ribosomes; assay type: cell-based, Mycobacterium smegmatis; conditions: 72 h at 37° C.
# Method in brief: as §1
Structure (SMILES),minimal inhibitory concentrations ΔrrnB 1408G [1],Minimal inhibitory concentrations AG006 (AG006 E. coli BM13),Minimal inhibitory concentrations AG011 [2],Minimal inhibitory concentrations AG013 [3],minimal inhibitory concentrations ΔrrnB 1491C [4],Minimal inhibitory concentrations AG002 [5],minimal inhibitory concentrations ΔrrnB 1491A [6],Minimal inhibitory concentrations AG007 [7],Minimal inhibitory concentrations AG014 [8],Minimal inhibitory concentrations AG008 [9],Minimal inhibitory concentrations AG017 (AG017 E. faecalis JH2-2),Minimal inhibitory concentrations AG016 (AG016 S. aureus BM3002),Minimal inhibitory concentrations AG009 [10],Minimal inhibitory concentrations AG015 [11],Minimal inhibitory concentrations AG001 [12],Minimal inhibitory concentrations AG003 [13],Minimal inhibitory concentrations AG004 [14],Minimal inhibitory concentrations AG019 [15],minimal inhibitory concentrations ΔrrnB [16],also measured
"NC[C@@H]1O[C@H](O[C@H]2[C@@H](O)[C@H](O[C@@H]3[C@@H](O)[C@H](N)C[C@H](N)[C@H]3O[C@H]3O[C@@H]4COC(C=Cc5ccccc5)O[C@H]4[C@H](O)[C@H]3N)O[C@@H]2CO)[C@H](N)[C@@H](O)[C@@H]1O (stereo partly shown) [Compound 5.26, 4′,6′-O-(3-Phenyl)-propenylideneparomomycin]",≧512 μg/ml,32 µg/mL,4 µg/mL,4 to 8 µg/mL,≧512 μg/ml,64 µg/mL,≧512 μg/ml,32 µg/mL,4 µg/mL,32 µg/mL,16 to 32 µg/mL,8 µg/mL,128 µg/mL,16 to 32 µg/mL,32 to 64 µg/mL,32 µg/mL,32 µg/mL,64 to 128 µg/mL,2 to 4 µg/mL,
"NC[C@@H]1O[C@H](O[C@H]2[C@@H](O)[C@H](O[C@@H]3[C@@H](O)[C@H](N)C[C@H](N)[C@H]3O[C@H]3O[C@@H]4CO[C@@H](CCc5ccccc5)O[C@H]4[C@H](O)[C@H]3N)O[C@@H]2CO)[C@H](N)[C@@H](O)[C@@H]1O [Compound 5.25, 4′,6′-O-(3-Phenyl)-propylideneparomomycin]",512 µg/mL,16 to 32 µg/mL,4 µg/mL,4 to 8 µg/mL,≧512 μg/ml,32 to 64 µg/mL,≧512 μg/ml,16 to 32 µg/mL,4 µg/mL,32 µg/mL,8 µg/mL,8 µg/mL,64 to 128 µg/mL,8 to 16 µg/mL,32 to 64 µg/mL,32 µg/mL,32 µg/mL,32 µg/mL,1 µg/mL,
"NC[C@@H]1O[C@H](O[C@H]2[C@@H](O)[C@H](O[C@@H]3[C@@H](O)[C@H](N)C[C@H](N)[C@H]3O[C@H]3O[C@H](CO)[C@@H](OCc4ccc(Cl)cc4)[C@H](O)[C@H]3N)O[C@@H]2CO)[C@H](N)[C@@H](O)[C@@H]1O [Compound 19a, 4′-p-chlorobenzylparomomycin]",≧512 μg/ml,8 to 16 µg/mL,2 µg/mL,4 µg/mL,>512 µg/mL,16 µg/mL,≧512 μg/ml,8 to 16 µg/mL,2 µg/mL,8 to 16 µg/mL,8 to 16 µg/mL,4 µg/mL,32 µg/mL,8 to 16 µg/mL,8 to 16 µg/mL,8 to 16 µg/mL,8 to 16 µg/mL,32 to 64 µg/mL,2 µg/mL,
"NCC1OC(OC2C(CO)OC(OC3C(O)C(N)CC(N)C3OC3OC(CO)C(OCc4ccccc4)C(O)C3N)C2O)C(N)C(O)C1O (stereo not shown) [Compound 11, 4′-O-Benzylparomomycin]",>512 µg/mL,,,,>512 µg/mL,,≧512 μg/ml,,,,,,,,,,,,4 µg/mL,"MIC (AG006 E. coli BM13; Escherichia coli, read-out: Minimal inhibitory concentrations AG006): 32 µg/mL; MIC ([2]; Staphylococcus aureus, read-out: Minimal inhibitory concentrations AG011): 8 µg/mL; MIC ([3]; Staphylococcus epidermidis, read-out: Minimal inhibitory concentrations AG013): 16 µg/mL; MIC ([5]; Escherichia coli, read-out: Minimal inhibitory concentrations AG002): 32 to 64 µg/mL; MIC ([7]; Escherichia coli, read-out: Minimal inhibitory concentrations AG007): 32 µg/mL; MIC ([8]; Staphylococcus epidermidis, read-out: Minimal inhibitory concentrations AG014): 8 µg/mL; MIC ([9]; Escherichia coli, read-out: Minimal inhibitory concentrations AG008): 64 to 128 µg/mL; MIC (AG017 E. faecalis JH2-2; Enterococcus faecalis, read-out: Minimal inhibitory concentrations AG017): 32 to 64 µg/mL; MIC (AG016 S. aureus BM3002; Staphylococcus aureus, read-out: Minimal inhibitory concentrations AG016): 16 to 32 µg/mL; MIC ([10]; Escherichia coli, read-out: Minimal inhibitory concentrations AG009): 64 to 128 µg/mL; MIC ([11]; Staphylococcus aureus, read-out: Minimal inhibitory concentrations AG015): 32 µg/mL; MIC ([12]; Escherichia coli, read-out: Minimal inhibitory concentrations AG001): 64 µg/mL; MIC ([13]; Escherichia coli, read-out: Minimal inhibitory concentrations AG003): 32 to 64 µg/mL; MIC ([14]; Escherichia coli, read-out: Minimal inhibitory concentrations AG004): 64 µg/mL; MIC ([15]; Enterococcus faecalis, read-out: Minimal inhibitory concentrations AG019): > 256 µg/mL"
